Experimental data published in PubChem BioAssay (NCI).
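Following 48 hours of exposure in 96-well plates, responses at five concentrations were used to interpolate endpoints linearly. TGI denotes the concentration required for complete inhibition of growth.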

Experiments:
Experiment in all cases: NCI-60 cell line screen, 48 h
SNB-78 CNS = test system: SNB-78 CNS
KM20L2 colon = test system: KM20L2 colon
DMS 273 small cell lung = test system: DMS 273 small cell lung
M19-MEL melanoma = test system: M19-MEL melanoma
LXFL 529 NSCLC = test system: LXFL 529 NSCLC
DMS 114 small cell lung = test system: DMS 114 small cell lung
MCF7 breast = test system: MCF7 breast

Structure (SMILES)	TGI (SNB-78 CNS)	TGI (KM20L2 colon)	TGI (DMS 273 small cell lung)	TGI (M19-MEL melanoma)	TGI (LXFL 529 NSCLC)	TGI (DMS 114 small cell lung)	TGI (MCF7 breast)
O=C1NC(=O)C(=O)C(c2nc3ccccc3s2)C1=O	> 100 µM	> 100 µM	> 100 µM	> 100 µM	> 100 µM	> 100 µM	–
NC1=NC(c2ccccc2)CC(c2cc(Cl)cc(Br)c2O)=N1 (stereo unspecified)	47.7 µM	30.8 µM	23.2 µM	28.2 µM	31.3 µM	27.1 µM	21.4 µM
O=C(c1cc2c(C(F)(F)F)onc2c2ccccc12)C(F)(F)F	3.82 µM	25.1 µM	16.1 µM	23.4 µM	> 47 µM	10.9 µM	–
CC(C)c1cccc(C(C)C)c1N=C(N)C#N	> 100 µM	> 100 µM	> 56.9 µM	> 100 µM	> 100 µM	> 59.2 µM	–
CC(=O)O[C@H]1CCC2[C@@H]3CCC4Nc5c(cnn5-c5ccccc5)C[C@]4(C)C3CC[C@@]21C (stereo partly specified)	63.4 µM	37.1 µM	14.4 µM	24.4 µM	58.5 µM	58.3 µM	–
c1ccc2c(c1)nnn2CNc1ccc(N2CCOCC2)cc1	> 100 µM	> 100 µM	> 100 µM	> 100 µM	> 100 µM	> 100 µM	–
CCN(CC)CCOC(=O)/C(=C/c1ccc(OC)cc1)c1cc(OC)c(OC)c(OC)c1	> 100 µM	24.6 µM	23.4 µM	> 100 µM	23.1 µM	22.2 µM	–
CCC(O)(c1ccc(OC)cc1)C(c1ccc(OCc2ccccc2)cc1)c1ccc(OCc2ccccc2)cc1 (stereo unspecified)	> 100 µM	> 100 µM	> 100 µM	> 100 µM	> 100 µM	> 100 µM	–
C[C@@H](NC1CCC[C@@H]1O)c1ccccc1 (stereo partly specified)	> 100 µM	> 100 µM	> 100 µM	> 100 µM	> 100 µM	> 100 µM	–
CCCCCCCC(=O)OCC1OC(n2cc(F)c(=O)[nH]c2=O)C(NC(=O)OCc2ccccc2)C(OC(=O)CCCCCCC)C1O (stereo unspecified)	> 100 µM	> 100 µM	54.7 µM	54.6 µM	> 100 µM	> 100 µM	–
